Patent publication US20070275925A1, “ASTHMA DIAGNOSIS AND THERAPY” (REGENTS OF THE UNIVERSITY OF CALIFORNIA, priority 2006, published 2007)
Entries after “also recorded” stand apart in the source; their conditions may differ.

Test system: epithelial brushings
Assay: Microarray gene expression in epithelial brushings, randomized placebo-controlled trial of inhaled fluticasone
Assay type: in vivo, human
Description: In three cross sectional studies and a clinical trial, epithelial brushings were collected by bronchoscopy from 42 subjects with asthma, 16 current smokers without asthma, and 28 healthy controls. Cross-sectional studies comprised 2 visits, the first for characterization and the second for bronchoscopy. The clinical trial was a 10 week, randomized, double-blind, placebo-controlled trial specifically designed to determine the effects of inhaled fluticasone (500 μg twice daily) on airway gene expression and to relate gene expression changes to improvements in lung function (FIG. 1). Bronchoscopy was performed at baseline and repeated 1 week after starting study drug. Thirty-five subjects had adequate baseline bronchoscopy and 32 had RNA available from epithelial brushings at both bronchoscopies. Lung function was measured at intervals over the 8-week treatment period. Epithelial RNA from a subset of the subjects studied by microarray here have been used in other PCR based gene expression studies performed by our group.^4 Additional information is provided in the supplementary appendix.
Brushings yielded 1,300,000±800,000 cells of which 97±3% were epithelial. For microarray analysis, […] total epithelial RNA was amplified using NuGen Ovation RNA amplification system. Then 2.75 μg sscDNA was hybridized to Affymetrix U133 plus 2.0 arrays (>54,000 probe sets coding for 38,500 genes). Array images were analyzed using Affymetrix GeneChip Expression Analysis Software. Bioconductor^5 was used for quality control (affyPLM algorithm), preprocessing (RMA algorithm), cluster analysis, and linear modeling.^5-7 Raw array data are available from the Gene Expression Omnibus public database (http://www.ncbi.nlm.nih.gov/geo/, accession number pending). Selected microarray findings were confirmed by real-time PCR, enzyme linked immunosorbent assay (ELISA) or immunohistochemistry. In vitro studies of the effects of interleukin-13 (IL-13) on expression of selected genes were performed using primary airway epithelial cells grown at an air-liquid interface (additional detail in supplementary appendix).
For between group comparisons, t-test, rank-sum test or ANOVA followed by pair-wise analyses with Sidak correction were used as appropriate. Correlation of mRNA copy number by PCR (log transformed for normality) and lung function was performed using Pearson correlation. STATA version 9 software was used (StataCorp, College Station Tex.), and p<0.05 was taken as statistically significant. In microarray analyses, differential gene expression was assessed using linear models (controlling for age and gender). For between group comparisons, a Bonferroni corrected p-value<0.05 was used to identify differentially expressed genes. For the placebo-controlled trial, changes in gene expression from baseline to post-intervention were calculated and the mean changes in the fluticasone and placebo groups were compared. A two-fold change (either higher or lower in the fluticasone group as compared to placebo), was used to identify differentially expressed genes. Microarray analyses were performed using Bioconductor open source software^5 in the R statistical environment.
Protocol: This was a 6 visit, 10 week, randomized, double-blind, placebo-controlled trial specifically designed to determine the effects of inhaled fluticasone on airway gene expression and to relate those gene expression changes to improvements in lung function. After a one-week run-in/characterization period, subjects were randomized to receive 2 puffs BID of fluticasone propionate (250 μg/puff) or matching placebo for 8 weeks, followed by a one week run-out. Subjects were randomized in blocks designed to yield a greater number of subjects randomized to fluticasone as compared to placebo in order to maximize our ability to relate gene expression to lung function improvements within the intervention group. […]

[1] = fluticasone group as compared to placebo group, baseline to 1 week
[2] = fluticasone group, baseline to 1 week, asthmatics

## CCC(=O)O[C@]1(C(=O)SCF)[C@H](C)C[C@H]2[C@@H]3C[C@H](F)C4=CC(=O)C=C[C@]4(C)[C@@]3(F)[C@@H](O)C[C@@]21C [fluticasone, fluticasone propionate]
Additional gene profiling experiments
  CST1 gene expression in airway epithelial brushing from asthmatics treated with inhaled fluticasone: upregulated
Fluticasone arm as compared to the placebo arm
  CST1 reduction by array: 2 fold
Fluticasone arm as compared to the placebo arm, asthmatic airway epithelial cells
  PRR4 gene expression change with fluticasone: only modestly reduced; also recorded: no significant change
[1]
  Fold-difference Combined, 227061_at (CDNA FLJ44429 fis): 2.0 fold
  Fold-difference Combined, 228854_at (Transcribed locus): 10.5 fold
  Fold-difference Combined, 228858_at (Transcribed locus): 2.8 fold
  Fold-difference Combined, 230782_at (CDNA FLJ33419 fis): 2.2 fold
  Fold-difference Combined, 231262_at (Transcribed locus): 2.8 fold
  Fold-difference Combined, 244677_at: 2.3 fold
  Fold-difference Combined, C6: 2.2 fold
  Fold-difference Combined, C14orf78: 2.1 fold
  Fold-difference Combined, CLCA1: −2.4 fold
  Fold-difference Combined, CST1: −2.1 fold
  Fold-difference Combined, FKBP51: 4.4 fold
  Fold-difference Combined, FXYD1: 2.1 fold
  Fold-difference Combined, GAS1: 3.3 fold
  Fold-difference Combined, GPR109B: 2.4 fold
  Fold-difference Combined, HBA2: 2.7 fold
  Fold-difference Combined, HBB: 2.1 fold
  Fold-difference Combined, HIF3A: 2.7 fold
  Fold-difference Combined, KLF9: 2.4 fold
  Fold-difference Combined, LOC157381: 2.1 fold
  Fold-difference Combined, MUC13: −2.0 fold
  Fold-difference Combined, PHACTR3: 3.2 fold
  Fold-difference Combined, POSTN: −2.1 fold
  Fold-difference Combined, PPP1R16B: 2.4 fold
  Fold-difference Combined, SERPINB2: −2.9 fold
  Fold-difference Combined, TFCP2L1: 3.0 fold
  Fold-difference Combined, TSC22D3: 2.5 fold
  Fold-difference Combined, TU3A: 2.8 fold
  Fold-difference Combined, UBD: −2.1 fold
  Fold-difference Combined, UBE2H: 2.1 fold
  Fold-difference Combined, WIPI49: 2.0 fold
[2]
  Fold-difference Flovent, 227061_at (CDNA FLJ44429 fis): 1.6 fold
  Fold-difference Flovent, 228854_at (Transcribed locus): 7.3 fold
  Fold-difference Flovent, 228858_at (Transcribed locus): 2.4 fold
  Fold-difference Flovent, 230782_at (CDNA FLJ33419 fis): 2.1 fold
  Fold-difference Flovent, 231262_at (Transcribed locus): 2.4 fold
  Fold-difference Flovent, 244677_at: 1.8 fold
  Fold-difference Flovent, C6: 1.6 fold
  Fold-difference Flovent, C14orf78: 1.8 fold
  Fold-difference Flovent, CLCA1: −2.7 fold
  Fold-difference Flovent, CST1: −2.4 fold
  Fold-difference Flovent, FKBP51: 3.6 fold
  Fold-difference Flovent, FXYD1: 1.4 fold
  Fold-difference Flovent, GAS1: 2.7 fold
  Fold-difference Flovent, GPR109B: 1.9 fold
  Fold-difference Flovent, HBA2: 3.0 fold
  Fold-difference Flovent, HBB: 2.5 fold
  Fold-difference Flovent, HIF3A: 2.7 fold
  Fold-difference Flovent, KLF9: 2.2 fold
  Fold-difference Flovent, LOC157381: 1.7 fold
  Fold-difference Flovent, MUC13: −1.6 fold
  Fold-difference Flovent, PHACTR3: 3.1 fold
  Fold-difference Flovent, POSTN: −2.1 fold
  Fold-difference Flovent, PPP1R16B: 2.1 fold
  Fold-difference Flovent, SERPINB2: −2.5 fold
  Fold-difference Flovent, TFCP2L1: 3.1 fold
  Fold-difference Flovent, TSC22D3: 2.0 fold
  Fold-difference Flovent, TU3A: 2.3 fold
  Fold-difference Flovent, UBD: −2.0 fold
  Fold-difference Flovent, UBE2H: 2.0 fold
  Fold-difference Flovent, WIPI49: 1.7 fold
